Patent US20060100275A1, “Agent for treating interstitial cystitis” (KISSEI PHARMACEUTICAL CO., LTD., priority 2004, published 2006)

System: capsaicin-sensitive sensory nerve
Test: Capsaicin-induced Evans Blue pigment leakage into mouse bladder (capsaicin-sensitive sensory nerve inhibition)
Type: in vivo
Conditions: for inhibition of capsaicin-sensitive sensory nerve (summary): female Balb/c mouse bladder, capsaicin stimulation
Procedure: A female Balb/c mouse (Japan SLC) which had been anesthetized by intraperitoneally administering 0.15 ml of 20% urethane was subjected to tracheal cannulation, using a polyethylene tube PE 50. A polyethylene tube PE 10 was inserted into the bladder via a urethra, and hydrochloride of ethyl (−)-2-[4-[2-[[(1S,2R)-2-hydroxy-2-(4-hydroxyphenyl)-1-methy lethyl]amino]ethyl]-2,5-dimethylphenoxy]acetate (to be referred to as “compound 1” hereinafter), which had been dissolved in physiological saline and 2 equivalents of sodium hydroxide to a concentration of 10 μM and further diluted to various concentrations with physiological saline, was injected through the tube. After 1 hour from the injection, a solution (10 ml/kg) of Evans Blue (30 mg/kg) and capsaicin (0.3 mg/kg) dissolved in physiological saline containing 0.1% DMSO and 0.1% Tween 80 was administered through caudal vein. Precisely 5 minutes after the administration, the animal was sacrificed by cervical vertebrae dislocation to extract the bladder. After removing urine and blood from the extracted bladder, wet weight of the bladder was measured, and the extracted bladder was put into each well of a 96 well microplate into which formamide had been dispensed in 150 μl portions in advance. After soaking the bladder overnight in formamide, the pigment in the bladder tissue was determined by measuring absorbance of 100 μl of the supernatant at a wavelength of 620 nm. In addition, the amount of the Evans Blue pigment per 1 mg bladder wet weight was calculated. In this connection, a mouse in which physiological saline was injected into the bladder and the Evans Blue solution containing no capsaicin was administered thereto was used as the normal control.
The results are shown in FIG. 1 by average value ± standard deviation. Inter-group significant difference between normal control group and capsaicin stimulation group was examined by student's t-test. Inter-group significant difference between compound 1 administration group and un-administration group was examined by a one dimensional analysis of variation and subsequent Dunnett's inter-multigroup comparison. A value of p<0.05 was regarded as significant.
The pigment in the bladder tissue was determined in the same manner as in Test Example 1, except that Tolterodine was used instead of the compound 1 and Hartman's solution was used instead of the physiological saline and 2 equivalents of sodium hydroxide. In this connection, a mouse in which Hartman's solution was injected into the bladder and the Evans Blue solution containing no capsaicin was administered thereto was used as the normal control.

[1] = female Balb/c mouse, injected into the bladder 1 hour before i.v. Evans Blue 30 mg/kg + capsaicin 0.3 mg/kg, various concentrations, vs solvent group

Row | Compound | inhibition of capsaicin-sensitive sensory nerve (summary) | amount of Evans Blue pigment in bladder tissue [1] | amount of Evans Blue pigment in bladder tissue (1 μM administration group, injected into the bladder, p<0.01 vs solvent group)
1 | Cc1ccc(O)c([C@H](CCN(C(C)C)C(C)C)c2ccccc2)c1 [Tolterodine, reference compound] | did not inhibit the capsaicin-sensitive sensory nerve | Significant difference in the amount of Evans Blue pigment was not found | –
2 | CCOC(=O)COc1cc(C)c(CCN[C@@H](C)[C@H](O)c2ccc(O)cc2)cc1C [compound 1, ethyl (−)-2-[4-[2-[[(1S,2R)-2-hydroxy-2-(4-hydroxyphenyl)-1-methylethyl]amino]ethyl]-2,5-dimethylphenoxy]acetate] | markedly inhibited the capsaicin-sensitive sensory nerve | concentration-dependently reduced the amount of Evans Blue pigment | significantly reduced
